Test system: HBV
Assay: Therapeutic effect on HepG2-hNTCP 2B1 infected by HBV (drug from day 6 after infection)
Type: cell-based, hepatitis B virus
Settings: drug treatment from 6 days after HBV infection to day 12, Palovarotene at high concentrations (p<0.05), ETV 1 μM, vs blank group
Method: This experiment was carried out in a 24-well culture plate. […] About 1.5×10^5 HepG2-hNTCP 2B1 cells were plated in each well, and 500 μL of medium B was added to each well. After the cells adhered, medium A was used for replacement to perform the induction with Doxycycline during the whole experiment.
4 Days after the induction with Doxycycline, HBV infection was performed, and the amount of HBV in each well was 100 MOI. Before infection, HBV was diluted in medium C to obtain HBV solution, and the infection volume was 250 μL per well. During infection, the cell supernatant was first removed by suction, the HBV solution was added to the cells, and the cells were incubated for 24 hours, then the supernatant was collected as the sample of Day 0. Then the cells were washed three times with PBS, and fresh medium C was used for replacement. After that, the supernatant was collected every two days for detection, fresh medium C was used for replacement. On the 6th day, fresh drug-containing medium A was used for replacement to start drug treatment, then the supernatant was collected every two days for detection, and fresh drug-containing medium A was used for replacement, until the 12th day, all the supernatant and cells were collected for relevant detection. The detection items included HBsAg, HBeAg, HBV DNA, HBV cccDNA, and for the detection method, please refer to Example 1.

C=C1[C@H](CO)[C@@H](O)C[C@@H]1n1cnc2c(=O)[nH]c(N)nc21 [ETV, Entecavir]
no significant difference: HBeAg | level of HBV DNA | level of HBV cccDNA
